Data taken from patent US10294530B2, “Biomarker FOXF2 for gastric cancer” (The Chinese University of Hong Kong, priority 2016, dated 2019).

Test system: FOXF2 expression
Test: Demethylation treatment, FOXF2 expression by semi-quantitative PCR
Type: cell-based, human
Method: Semi-quantitative PCR was performed in a total volume of 20 μL reaction containing GeneAmp 1×PCR Buffer II (Applied Biosystems), 2.5 mM MgCl2, 200 μM each of dNTP, 200 nM each of primers, 0.4 U of AmpliTaq Gold DNA polymerase (Applied Biosystems) and 30˜50 ng cDNA. The PCR program started with an initial denaturation at 94° C. for 10 min, followed by 32-35 cycles (94° C. for 30 sec, annealing temperature for 30 sec, and 72° C. for 30 sec) of amplification, with a final extension at 72° C. for 10 min. The PCR bands were visualized under ultraviolet light and photographed. The expression of the target gene was normalized by the expression of house-keeping gene β-actin, which served as an internal control.
Cells were seeded at a density of 1×10^5/100-mm dishes and grew for 24 hours. Cells were then treated with 2 μM 5-aza-2′-deoxycytidine (“5-Aza”) (Sigma-Aldrich) for 5 days. The 5-Aza was replenished every day. The gene expression of FOXF2 was evaluated using semi-quantitative PCR.

Nc1ncn([C@H]2C[C@H](O)[C@@H](CO)O2)c(=O)n1 [5-Aza, 5-aza-2′-deoxycytidine]
FOXF2 expression (AGS, 2 μM 5-Aza for 5 days): restored
FOXF2 expression (MKN28, 2 μM 5-Aza for 5 days): restored
FOXF2 expression (MKN45, 2 μM 5-Aza for 5 days): restored
FOXF2 expression (MKN74): insufficient
FOXF2 expression (NCL-N87, 2 μM 5-Aza for 5 days): restored
FOXF2 expression (SNU719, 2 μM 5-Aza for 5 days): restored
